The text below walks through data of patent US7872016B2, “Method for treating skeletal disorders resulting from FGFR malfunction” (Yale University, priority 2004, dated 2011).

In one data set the target is T1, FGFR2 (Mus musculus, UniProt P21803).
T1 construct: expressed in transfected cells; host or cells: 3T3 cells
Description: Blocking ligand-stimulated tyrosine autophosphorylation of FLAG-tagged FGFR2 in 3T3 cells (IP / anti-pTyr immunoblot). It is filed as cell-based. The note with it: 3T3 cells pretreated 5 minutes, then ligand stimulated 5 minutes at 37° C. As for the experimental part: FIGS. 14A-D show pharmacological intervention in FGFR activation. (C) Structure of [4-(3,5-difluorophenyl)-1H-pyrrolo[2,3-b]pyridin-3-yl](3-methoxyphenyl)methanone (PLX052). (D) 3T3-cells treated for 5 minutes with PLX052 were ligand stimulated for 5 minutes at 37° C. Cell lysates were subjected to immunoprecipitation with anti-FLAG tag antibodies (the expression vector contains a tag in the c-terminus of FGFR2) followed by immunoblotting with either anti-phosphotyrosine (pTyr) or anti-FLAG antibodies. (A & B) Crystals of the apo-FGFR1 minimal kinase domain were grown at 4° C. by vapor diffusion in hanging drops containing 2 uL of 12 mg/mL protein solution and 2 uL of reservoir solution: 16% PEG8K, 0.25 M (NH4)2SO4, 5% ethylene glycol, 10 mM DTT, and 0.1 M Bis Tris, pH 5.8. Native crystals were soaked overnight at 4° C. in mother liquor containing 2 mM PLX052 and 5% DMSO. Complexed crystal belongs to monoclinic space group C2 and has unit cell dimensions a=211.9 Å, b=49.7 Å, c=66.2 Å, and β=107.4°. One cryo-cooled crystal was used for data collection, and data was collected at beamline X26 at Brookhaven National Laboratory. Co-crystallization of the kinase with PLX052 was also performed and found the same structural result. […] The nucleotide binding loop is shown in blue, the hinge region in magenta, and the catalytic core in yellow. (A) The side chains that interact with PLX052. […]

The test system of data set [1] is FRS2α. Description: FRS2 phosphorylation in mutant cells expressing constitutively activated Crouzon-like mutant Fgfr2c isoform. It is filed as cell-based. The note with it: results not shown. As to the method:
(§1) We first tested the effect of PLX052 in vitro for blocking the activation of FGFR2. Cells were pretreated for 5 minutes with the compound before stimulation. […] We further tested the ability of PLX052 in blocking the FRS2 phosphorylation in mutant cells expressing constitutively activated Crouzon-like mutant Fgfr2c isoform.

The test system of a further data set is MAP Kinase signaling. Description: MAP Kinase signaling in mutant cells expressing constitutively activated Crouzon-like mutant Fgfr2c isoform. It is filed as cell-based. The note with it: results not shown. As to the method:
as §1

The subject of data set [2] is coronal suture of Crouzon-like mutant mice calvaria. Description: Calvaria organ culture, Crouzon-like mutant mice: coronal suture fusion. Type of data set: cell-based, mouse. The note with it: for premature fusion of coronal suture of mutant mice calvaria: cultured 21 days. As to the method: (§2) FIGS. 15A-15D show results of in vitro culture of calvaria with FGFR inhibitor PLX052. Calvaria harvested from the Crouzon mutant and wild type E18.5 day old embryos were cultured in DMEM medium containing 10% FCS supplemented with ascorbic acid at 100 μg/ml and 1 μM PLX052 in 24 well plates. Medium was changed on alternate days along with the inhibitor. Controls were cultured with the vehicle only (0.2% DMSO). Calvaria were cultured for 14 days. After the specified time, calvaria were fixed in 10% buffered formalin, dehydrated followed by infiltration and embedding in methylmethacrylate plastic. Blocks were cut perpendicular to the coronal suture, that passes through the frontal bone (anterior side) and the parietal bone (posterior side). […] sections were collected and stained with toludine blue (FIG. 15.2, left panels). Adjacent sections were stained for minerals of the bone matrix using Van Kossa followed by methyl green counter staining. (A) wild type, and (B), mutant calvaria cultured with the vehicle alone (0.2% DMSO). Note the open suture in the wild type (A) and the fused suture in the mutant (B) cultured calvaria. (C), wild type and (D), mutant cultured with 1 μM PLX052 (in 0.2% DMSO). The left panels [(i), (iii)] are toluidine blue staining and the right panels [(ii), (iv)] are Van Kossa with methyl green counter staining. Lower panels [(iii), (iv)] are the higher magnification of the sutures shown in the boxed region of the upper panels [(i), (ii)].
(§3) PLX052 prevents cranial suture fusion in vitro. Next, we tested the ability of the PLX052 to prevent craniosynostosis in calvaria organ culture from wt and Crouzon-like mutant mice (FIG. 15). […] The calavria organ culture experiments were repeated with two different concentrations of PLX052 (1 μM and 5 μM) and cultured for extended period of time (21 days) to assess the dose response for this inhibitor (see below). […] Higher concentrations of PLX052 (50 μM and above) have caused extensive cell death within 24 hours in cultured cells. […]

Data set [3] relates to wild type suture (calvaria). Description: Calvaria organ culture, wild type mice: suture development. Type of data set: cell-based, mouse. The note with it: for normal development of the sutures in the wild type: cultured 21 days. As to the method: as §2, §3
The test system of a further data set is cultured cells. As to the kind of experiment: Cell death in cultured cells. Type of data set: cell-based. The conditions noted are these: within 24 hours. As for the experimental part:
PLX052 prevents cranial suture fusion in vitro. Next, we tested the ability of the PLX052 to prevent craniosynostosis in calvaria organ culture from wt and Crouzon-like mutant mice (FIG. 15). […] The calavria organ culture experiments were repeated with two different concentrations of PLX052 (1 μM and 5 μM) and cultured for extended period of time (21 days) to assess the dose response for this inhibitor (see below). […] Higher concentrations of PLX052 (50 μM and above) have caused extensive cell death within 24 hours in cultured cells. Therefore, it is feasible to use limited amount of inhibitor to attenuate the abnormal signaling from the mutant receptors without causing adverse effect on the normal signaling pathways.

In data set [4] the test system is FRS2α. The note with it: unstimulated cells treated with the MEK inhibitor; cited from earlier work.
Where [5] appears, read: 1 μM, E18.5 calvaria cultured 14 days.

Entries after “also recorded” stand apart in the source; their conditions may differ. Bounds are passed on as bounds.

T1 sequence (P21803 22-821): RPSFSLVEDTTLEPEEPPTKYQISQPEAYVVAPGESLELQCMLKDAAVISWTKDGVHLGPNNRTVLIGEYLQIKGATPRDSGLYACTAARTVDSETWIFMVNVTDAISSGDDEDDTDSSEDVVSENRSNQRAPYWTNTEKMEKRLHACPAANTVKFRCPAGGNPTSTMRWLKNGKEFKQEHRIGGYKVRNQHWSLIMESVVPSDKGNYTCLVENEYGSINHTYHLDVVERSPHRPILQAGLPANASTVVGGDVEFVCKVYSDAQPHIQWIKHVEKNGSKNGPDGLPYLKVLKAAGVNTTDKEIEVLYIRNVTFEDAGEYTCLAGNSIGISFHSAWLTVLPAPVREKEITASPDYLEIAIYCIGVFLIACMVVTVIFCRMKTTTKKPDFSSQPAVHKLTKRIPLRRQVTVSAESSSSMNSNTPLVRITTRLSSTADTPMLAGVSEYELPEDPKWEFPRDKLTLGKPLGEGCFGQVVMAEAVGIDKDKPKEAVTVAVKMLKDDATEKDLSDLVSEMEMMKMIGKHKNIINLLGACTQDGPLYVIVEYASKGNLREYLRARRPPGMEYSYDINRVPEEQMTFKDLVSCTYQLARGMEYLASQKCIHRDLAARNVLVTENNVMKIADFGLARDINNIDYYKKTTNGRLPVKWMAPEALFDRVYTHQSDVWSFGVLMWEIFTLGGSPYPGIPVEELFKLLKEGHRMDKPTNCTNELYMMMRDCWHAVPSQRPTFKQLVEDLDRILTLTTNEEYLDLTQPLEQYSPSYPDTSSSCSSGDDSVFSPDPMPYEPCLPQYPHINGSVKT

`COc1cccc(C(=O)c2c[nH]c3nccc(-c4cc(F)cc(F)c4)c23)c1` [PLX052, [4-(3,5-difluorophenyl)-1H-pyrrolo[2,3-b]pyridin-3-yl](3-methoxyphenyl)methanone]: the “concentration that inhibits FGFR activation to basal levels (tyrosine autophosphorylation of FGFR2)” value at FGFR2 worked out at 10 µM. The “phosphorylation of FRS2α” value in the data set with FRS2α [1] is reported as “significant reduction in the phosphorylation of FRS2α”. In addition, in the data set with MAP Kinase signaling, the “MAP Kinase signaling” value is given as “attenuated MAP Kinase signaling”. Moreover, the “premature fusion of coronal suture in mutant calvaria in vitro” value in data set [2] (setting [5]) was “able to rescue the premature fusion of coronal suture; also recorded: open suture in the mutant cultured with PLX052”. Moreover, the “premature fusion of coronal suture of mutant mice calvaria” value in data set [2] (1 μM) and in data set [2] (5 μM) was “able to prevent the premature fusion of coronal suture” in each case. Also, in data set [3] (setting [5]), the “growth of the wild type suture” value was “did not affect the growth of the wild type suture”. The “normal development of the sutures in the wild type” value in data set [3] (1 μM) and in data set [3] (5 μM) was “without affecting the normal development of the sutures in the wild type” each time. Besides, in the data set with cultured cells, the “concentration causing extensive cell death” value is not below 50 µM.
Take `COc1cccc(-c2cc(=O)c3ccccc3o2)c1N` [PD 0980089]: the “tyrosine phosphorylation of FRS2α” value with FRS2α [4] is recorded as “leads to constitutive tyrosine phosphorylation of FRS2α”.
